From patent US8273769B2, “Phenoxy acetic acid derivatives” (Merck Serono SA, priority 2009, dated 2012)

What was measured:
[1] = biological target: T1, CRTH2 (Homo sapiens, UniProt Q9Y5Y4); assay: Cellular Dielectric Spectroscopy (CHO-CRTH2 cells); format: cell-based; parameters: expressed in transfected cells; host or cells: CHO-CRTH2 cells; conditions: for IC50: antagonist mode, fixed concentration of PGD2 (EC80); for EC50 / Emax: partial agonists, agonist activity without PGD2
T1 sequence (Q9Y5Y4 1-395): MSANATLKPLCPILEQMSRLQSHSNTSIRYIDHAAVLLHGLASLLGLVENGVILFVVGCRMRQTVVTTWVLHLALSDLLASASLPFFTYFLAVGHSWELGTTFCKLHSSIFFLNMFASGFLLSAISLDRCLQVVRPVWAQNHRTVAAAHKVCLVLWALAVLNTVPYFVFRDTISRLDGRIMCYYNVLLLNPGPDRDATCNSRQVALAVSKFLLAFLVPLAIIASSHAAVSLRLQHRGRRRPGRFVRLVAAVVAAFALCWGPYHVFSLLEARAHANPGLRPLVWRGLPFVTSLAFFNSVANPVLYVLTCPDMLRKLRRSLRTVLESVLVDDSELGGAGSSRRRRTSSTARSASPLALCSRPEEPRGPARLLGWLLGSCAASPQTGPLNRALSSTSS
Protocol: Cellular Dielectric Spectroscopy (CDS) is a label-free technology based on the measurement of complex impedance changes (delta Z or dZ). Impedance (Z) is related to the ratio of voltage to current as described by Ohm's law (Z=V/I). In order to measure the changes in impedance that occur in response to receptor stimulation, mammalian cells are seeded onto a custom 96-well microliter plate that contains electrodes at the bottom of each well. Key contributors to the impedance measurements are changes in cell-substrate adherence, changes in cell shape and volume, and changes in cell-cell interactions. These factors individually or collectively affect the flow of current, influencing the magnitude and characteristics of the signal measured. G-protein coupled receptors ligand-induced activity can be measured using this technology and specific G protein coupling can be identified. Activities of reference agonist and antagonist molecules of CRTH2 have been measured using this assay and similar results were obtained compared to different functional assays.
CHO-CRTH2 cells are cultured in HAM's F12 (Lonza, Switzerland) supplemented with 10% foetal calf serum (PAA, Australia) and 400 μg/ml Geneticin. 100000 cells/well are seeded in standard 96W Microplates (MDS Analytical Technologies) and incubated at 37° C. in 5% CO2 for 24 hours. Cells are washed twice with 135 μl of cell key buffer (Hank's Balanced Salt Solution 1× (HBSS) (Invitrogen) supplemented with 10 mM HEPES pH 7.4 in presence of 1% DMSO). For EC50 determination. 15 μl of increasing concentration of Compounds of Formula (I) diluted in cell key buffer are added to the cells and agonist activity is then recorded for 25 minutes. […] Results are expressed as the amplitude between the highest and the lowest signal produced (max-min). Basal and maximum activities are measured, respectively in absence or presence of PGD2 (EC80).

[2] = biological target: T1, CRTH2; assay: Radioligand binding Scintillation Proximity Assay ([3H]PGD2, hCRTH2-CHO cell membranes); parameters: host or cells: CHO cells; conditions: 1.5 nM [3H]PGD2, hCRTH2-CHO cell membranes, SPA
Procedure, shortened: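 SPA competition binding at room temperature, 90 min with agitation: 1.5 nM [3H]PGD2, 10-50 μg/ml hCRTH2-CHO membrane protein, WGA SPA beads, HEPES pH 7.4 with 10 mM MnCl2, 1% DMSO. Non-specific binding defined with 10 μM PGD2; scintillation counting.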

Compound | IC50 [2] [nM] | also measured
CCCS(=O)(=O)c1cccc(C#Cc2cc(-c3ccccc3)ccc2OCC(=O)O)c1 [Example 131, [(3-{[3-(Propylsulfonyl)phenyl]ethynyl}biphenyl-4-yl)oxy]acetic acid] | 24 | EC50 [1]: 74 nM; Emax [1]: 68%
CCCS(=O)(=O)c1cccc(C#Cc2cc(C(F)(F)F)ccc2OCC(=O)O)c1 [Example 55, [2-{[3-(propylsulfonyl)phenyl]ethynyl}-4-(trifluoromethyl)phenoxy]acetic acid] | 13 | EC50 [1]: 24 nM; Emax [1]: 62%
CCCS(=O)(=O)c1cccc(C#Cc2c(OCC(=O)O)ccc3ccccc23)c1 [Example 148, [(1-{[3-(propylsulfonyl)phenyl]ethynyl}-2-naphthyl)oxy]acetic acid] | 56 | 
CS(=O)(=O)c1ccc(N2CCCCC2)c(C#Cc2cc(C#N)ccc2OCC(=O)O)c1 [Example 62, (4-cyano-2-{[5-(methylsulfonyl)-2-piperidin-1-ylphenyl]ethynyl}phenoxy)acetic acid] | 202 | 
Cc1ccc(S(=O)(=O)CCCO)cc1C#Cc1cc(C#N)ccc1OCC(=O)O [Example 73, [4-cyano-2-({5-[(3-hydroxypropyl)sulfonyl]-2-methylphenyl}ethynyl)phenoxy]acetic acid] | 57 | 
CCCS(=O)(=O)c1ccc(C)c(C#Cc2cc(Cl)ccc2OC(CC(C)C)C(=O)O)c1 (stereo not drawn) [Example 172, 2-(4-chloro-2-{[2-methyl-5-(propylsulfonyl)phenyl]ethynyl}phenoxy)-4-methylpentanoic acid] | 60 | 
N#Cc1ccc(OCC(=O)O)c(C#Cc2cncc(S(=O)(=O)N3CCOCC3)c2)c1 [Example 77, (4-cyano-2-{[5-(morpholin-4-ylsulfonyl)pyridin-3-yl]ethynyl}phenoxy)acetic acid] | 360 | 
Cc1ccc(S(=O)(=O)N(C)C2CCCC2)cc1C#Cc1cc(Cl)ccc1OCC(=O)O [Example 121, {4-chloro-2-[(5-{[cyclopentyl(methyl)amino]sulfonyl}-2-methylphenyl)ethynyl]phenoxy}acetic acid] | 8 | 
CCCS(=O)(=O)c1ccc(C)c(C#Cc2cc(Cl)ccc2OC(CC)C(=O)O)c1 (stereo not drawn) [Example 170, 2-(4-chloro-2-{[2-methyl-5-(propylsulfonyl)phenyl]ethynyl}phenoxy)butanoic acid] | 35 | 
CCCS(=O)(=O)c1cccc(C#Cc2cc(-c3ccsc3)ccc2OCC(=O)O)c1 [Example 133, [2-{[3-(propylsulfonyl)phenyl]ethynyl}-4-(3-thienyl)phenoxy]acetic acid] | 23 | 
Cc1ccc(S(=O)(=O)CCc2ccccc2)cc1C#Cc1cc(C#N)ccc1OCC(=O)O [Example 96, [4-cyano-2-({2-methyl-5-[(2-phenylethyl)sulfonyl]phenyl}ethynyl)phenoxy]acetic acid] | 7 | 
CCCN(CC)C(=O)c1ccc(C#Cc2cc(Cl)ccc2OCC(=O)O)cc1S(=O)(=O)C(C)C [Example 166, (4-chloro-2-{[4-{[ethyl(propyl)amino]carbonyl}-3-(isopropylsulfonyl)phenyl]ethynyl}phenoxy)acetic acid] | 43 | 
CS(=O)(=O)Nc1cncc(C#Cc2cc(Cl)ccc2OCC(=O)O)c1 [Example 39, [4-chloro-2-({5-[(methylsulfonyl)amino]pyridin-3-yl}ethynyl)phenoxy]acetic acid] | 23 | 
CCCS(=O)(=O)c1cccc(C#Cc2cc(-c3c(C)nn(C)c3C)ccc2OCC(=O)O)c1 [Example 136, [2-{[3-(Propylsulfonyl)phenyl]ethynyl}-4-(1,3,5-trimethyl-1H-pyrazol-4-yl)phenoxy]acetic acid] | 360 | 

Further lines, with some results ahead:

IC50 [2] [nM] | Compound | also measured
5 | Cc1ccc(S(=O)(=O)NC(C)C)cc1C#Cc1cc(Cl)ccc1OCC(=O)O [Example 86, [4-chloro-2-({5-[(isopropylamino)sulfonyl]-2-methylphenyl}ethynyl)phenoxy]acetic acid] | IC50 [1]: 118 nM
10 | Cc1ccc(S(=O)(=O)CCCO)cc1C#Cc1cc(Cl)ccc1OCC(=O)O [Example 54, [4-chloro-2-({5-[(3-hydroxypropyl)sulfonyl]-2-methylphenyl}ethynyl)phenoxy]acetic acid] | IC50 [1]: 37 nM
7 | CC(C)c1ccc(S(C)(=O)=O)cc1C#Cc1cc(Cl)ccc1OCC(=O)O [Example 70, (4-chloro-2-{[2-isopropyl-5-(methylsulfonyl)phenyl]ethynyl}phenoxy)acetic acid] | IC50 [1]: 21 nM
6 | CC(C)Cc1ccncc1C#Cc1cc(Cl)ccc1OCC(=O)O [Example 43, {4-chloro-2-[(4-isobutylpyridin-3-yl)ethynyl]phenoxy}acetic acid] | IC50 [1]: 269 nM
6 | Cc1ccc(S(=O)(=O)N(C)C(C)C)cc1C#Cc1cc(Cl)ccc1OCC(=O)O [Example 87, {4-chloro-2-[(5-{[isopropyl(methyl)amino]sulfonyl}-2-methylphenyl)ethynyl]phenoxy}acetic acid] | IC50 [1]: 83 nM
19 | CN(C)S(=O)(=O)c1cccc(C#Cc2cc(Cl)ccc2OCC(=O)O)c1 [Example 80, [4-chloro-2-({3-[(dimethylamino)sulfonyl]phenyl}ethynyl)phenoxy]acetic acid] | 
4 | CS(=O)(=O)c1cc(C#Cc2cc(Cl)ccc2OCC(=O)O)ccc1-c1ccccc1Cl [Example 146, (4-chloro-2-{[2′-chloro-2-(methylsulfonyl)biphenyl-4-yl]ethynyl}phenoxy)acetic acid] | 
5 | CCCN(C)S(=O)(=O)c1ccc(C)c(C#Cc2cc(Cl)ccc2OCC(=O)O)c1 [Example 115, {4-chloro-2-[(2-methyl-5-{[methyl(propyl)amino]sulfonyl}phenyl)ethynyl]phenoxy}acetic acid] | 
175 | Cc1ncccc1C#Cc1cc(Cl)ccc1OCC(=O)O [Example 22, {4-chloro-2-[(2-methylpyridin-3-yl)ethynyl]phenoxy}acetic acid] | 
1770 | Cn1ccnc1C#Cc1cc(Cl)ccc1OCC(=O)O [Example 11, {4-chloro-2-[(1-methyl-1H-imidazol-2-yl)ethynyl]phenoxy}acetic acid] | 
11 | CCC[S+]([O-])c1ccc(C)c(C#Cc2cc(Cl)ccc2OCC(=O)O)c1 (stereo not drawn) [Example 149, (4-chloro-2-{[2-methyl-5-(propylsulfinyl)phenyl]ethynyl}phenoxy)acetic acid] | 
146 | O=C(O)COc1ccc(Cl)cc1C#Cc1cccnc1 [Example 14, [4-chloro-2-(pyridin-3-ylethynyl)phenoxy]acetic acid] | 
5 | CCN(CC)S(=O)(=O)c1ccc(C)c(C#Cc2cc(Cl)ccc2OCC(=O)O)c1 [Example 81, [4-chloro-2-({5-[(diethylamino)sulfonyl]-2-methylphenyl}ethynyl)phenoxy]acetic acid] | 
3 | CCC(C)NS(=O)(=O)c1ccc(C)c(C#Cc2cc(Cl)ccc2OCC(=O)O)c1 (stereo not drawn) [Example 114, [2-({5-[(sec-butylamino)sulfonyl]-2-methylphenyl}ethynyl)-4-chlorophenoxy]acetic acid] | 
4 | CCCNS(=O)(=O)c1ccc(C)c(C#Cc2cc(Cl)ccc2OCC(=O)O)c1 [Example 118, [4-chloro-2-({2-methyl-5-[(propylamino)sulfonyl]phenyl}ethynyl)phenoxy]acetic acid] | 
19 | CS(=O)(=O)c1cccc(C#Cc2cc(Cl)ccc2OCC(=O)O)c1 [Example 18, (4-chloro-2-{[3-(methylsulfonyl)phenyl]ethynyl}phenoxy)acetic acid] | 
76 | O=C(O)COc1ccc(Cl)cc1C#Cc1ccccc1 [Example 1, [4-chloro-2-(phenylethynyl)phenoxy]acetic acid] | 
56 | O=C(O)COc1ccc(Cl)cc1C#Cc1ccccc1F [Example 5, {4-chloro-2-[(2-fluorophenyl)ethynyl]phenoxy}acetic acid] | 
296 | CS(=O)(=O)c1ccc(O)c(C#Cc2cc(Cl)ccc2OCC(=O)O)c1 [Example 60, (4-chloro-2-{[2-hydroxy-5-(methylsulfonyl)phenyl]ethynyl}phenoxy)acetic acid] | 
